Measured values: US20100216724A1, “USE OF F[…] (196-203 ) AS A […] AGENT” (priority 2007, published 2010)
Where no end group is shown, it is not given here.

Test system: drug-resistant Mycobacterium tuberculosis
Conditions: drug-resistant Mycobacterium tuberculosis growth; peptide 10 micrograms per ml; seven days

Q: For SRNRCNDQ-NH2, which “% inhibition” value is on record?
A: The value was 0.0%.
